Laboratory results published in US12016974B2, “Nitric oxide releasing surfaces for decreased fouling, thrombosis, and infection of medical devices” (priority 2016, dated 2024).
In brackets after ≈: the same amount, converted by molar mass.

How the values were obtained:
[1] = Solubility of SNAP in silicone oil; format: physicochemical; conditions: oil or lipid, thermodynamic from solid
Procedure: Leaching of SNAP from the silicone tubing was repeated during the oil swelling process as well, to ensure large amounts of SNAP were not lost during the 3-day swelling period. Sections of SNAP impregnated tubing were massed and placed in 4 mL of silicone oil. The absorbance spectra of silicone oil were taken to ensure no interference would be seen between the SNAP maxima and the oil. […] Therefore, the same calibration curve of SNAP in PBS-EDTA was used for determining SNAP concentration in the silicone oil. Solubility of SNAP in silicone oil was determined by adding 10 mg/mL and put on a vortex mixer for 2 min. The suspension was then centrifuged (10 min, 3000 rpm), and a 1 mL sample of the silicone oil was taken for UV vis spectroscopy.

[2] = after 6 months at room temperature; cited from earlier work

In the case of `CC(=O)N[C@@H](C(=O)O)C(C)(C)SN=O` (racemic) [SNAP, S-nitroso-N-acetylpenicillamine], the solubility at 2 min [1] is listed as 0.4 µg/mL (≈ 1.82 µM) and the “SNAP activity retained within a polymer matrix” value [2] is listed as 87%.
